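Following 48 hours of exposure in 96-well plates, responses at five concentrations were used to interpolate endpoints linearly. Definition used: TGI = concentration required for complete inhibition of growth.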
Legend:
Assay in all cases: growth of human tumour cells (NCI), 48 h
786-0 renal = system: 786-0 renal
A498 renal = system: A498 renal
A549 NSCLC = system: A549 NSCLC
ACHN renal = system: ACHN renal
BT-549 breast = system: BT-549 breast
CAKI-1 renal = system: CAKI-1 renal
COLO 205 colon = system: COLO 205 colon
DU-145 prostate = system: DU-145 prostate
EKVX NSCLC = system: EKVX NSCLC
HCC-2998 colon = system: HCC-2998 colon
HCT-116 colon = system: HCT-116 colon
HCT-15 colon = system: HCT-15 colon
HL-60(TB) leukemia = system: HL-60(TB) leukemia
HOP-62 NSCLC = system: HOP-62 NSCLC
HOP-92 NSCLC = system: HOP-92 NSCLC
HS 578T breast = system: HS 578T breast
HT29 colon = system: HT29 colon
IGROV1 ovarian = system: IGROV1 ovarian
K-562 leukemia = system: K-562 leukemia
KM12 colon = system: KM12 colon
LOX IMVI melanoma = system: LOX IMVI melanoma
M14 melanoma = system: M14 melanoma
MALME-3M melanoma = system: MALME-3M melanoma
MCF7 breast = system: MCF7 breast
MDA-MB-231 breast = system: MDA-MB-231 breast
MDA-MB-435 = system: MDA-MB-435
MDA-N = system: MDA-N
NCI-H226 lung = system: NCI-H226 lung
NCI-H23 lung = system: NCI-H23 lung
NCI-H460 lung = system: NCI-H460 lung
NCI-H522 lung = system: NCI-H522 lung
NCI/ADR-RES ovarian = system: NCI/ADR-RES ovarian
OVCAR-3 ovarian = system: OVCAR-3 ovarian
OVCAR-4 ovarian = system: OVCAR-4 ovarian
OVCAR-5 ovarian = system: OVCAR-5 ovarian
OVCAR-8 ovarian = system: OVCAR-8 ovarian
RXF 393 renal = system: RXF 393 renal
SF-268 CNS = system: SF-268 CNS
SF-295 CNS = system: SF-295 CNS
SF-539 CNS = system: SF-539 CNS
SK-MEL-2 melanoma = system: SK-MEL-2 melanoma
SK-MEL-28 melanoma = system: SK-MEL-28 melanoma
SK-MEL-5 melanoma = system: SK-MEL-5 melanoma
SK-OV-3 ovarian = system: SK-OV-3 ovarian
SN12C renal = system: SN12C renal
SNB-19 CNS = system: SNB-19 CNS
SNB-75 CNS = system: SNB-75 CNS
SR leukemia = system: SR leukemia
SW-620 colon = system: SW-620 colon
T-47D breast = system: T-47D breast
TK-10 renal = system: TK-10 renal
U251 CNS = system: U251 CNS
UACC-257 melanoma = system: UACC-257 melanoma
UACC-62 melanoma = system: UACC-62 melanoma
UO-31 renal = system: UO-31 renal
MOLT-4 leukemia = system: MOLT-4 leukemia
PC-3 prostate = system: PC-3 prostate
RPMI-8226 leukemia = system: RPMI-8226 leukemia

Cc1ccc(S(=O)(=O)N2CCNCCN(S(=O)(=O)c3ccc(C)cc3)CCNCC2)cc1
TGI (786-0 renal): 33.7 µM | TGI (A498 renal): 47 µM | TGI (A549 NSCLC): > 100 µM | TGI (ACHN renal): 89.1 µM | TGI (BT-549 breast): 47.1 µM | TGI (CAKI-1 renal): 73.5 µM | TGI (COLO 205 colon): 31.1 µM | TGI (DU-145 prostate): 71.8 µM | TGI (EKVX NSCLC): > 100 µM | TGI (HCC-2998 colon): 33.4 µM | TGI (HCT-116 colon): 28.5 µM | TGI (HCT-15 colon): > 100 µM | TGI (HL-60(TB) leukemia): 25.4 µM | TGI (HOP-62 NSCLC): 34.8 µM | TGI (HOP-92 NSCLC): 46.7 µM | TGI (HS 578T breast): 35.7 µM | TGI (HT29 colon): 30.2 µM | TGI (IGROV1 ovarian): 42.9 µM | TGI (K-562 leukemia): 31.4 µM | TGI (KM12 colon): 42.1 µM | TGI (LOX IMVI melanoma): 25.6 µM | TGI (M14 melanoma): 34.7 µM | TGI (MALME-3M melanoma): 33.1 µM | TGI (MCF7 breast): 53.8 µM | TGI (MDA-MB-231 breast): 60.4 µM | TGI (MDA-MB-435): 36.4 µM | TGI (MDA-N): 40.9 µM | TGI (NCI-H226 lung): 44 µM | TGI (NCI-H23 lung): > 100 µM | TGI (NCI-H460 lung): 36.8 µM | TGI (NCI-H522 lung): 36.5 µM | TGI (NCI/ADR-RES ovarian): > 100 µM | TGI (OVCAR-3 ovarian): 27.7 µM | TGI (OVCAR-4 ovarian): 82.4 µM | TGI (OVCAR-5 ovarian): > 100 µM | TGI (OVCAR-8 ovarian): 36.9 µM | TGI (RXF 393 renal): 14.7 µM | TGI (SF-268 CNS): 55 µM | TGI (SF-295 CNS): 32 µM | TGI (SF-539 CNS): 34.7 µM | TGI (SK-MEL-2 melanoma): 41.9 µM | TGI (SK-MEL-28 melanoma): 37.6 µM | TGI (SK-MEL-5 melanoma): 29.9 µM | TGI (SK-OV-3 ovarian): 41.1 µM | TGI (SN12C renal): > 100 µM | TGI (SNB-19 CNS): > 100 µM | TGI (SNB-75 CNS): 42.8 µM | TGI (SR leukemia): 34.1 µM | TGI (SW-620 colon): > 100 µM | TGI (T-47D breast): 31.7 µM | TGI (TK-10 renal): 44 µM | TGI (U251 CNS): 41.1 µM | TGI (UACC-257 melanoma): 33 µM | TGI (UACC-62 melanoma): 34.5 µM | TGI (UO-31 renal): 62.6 µM

CCCCCCCCCCCCOCC1(COCCCCCCCCCCCC)COC(c2ccc(N)cc2)OC1
TGI (786-0 renal): > 100 µM | TGI (A498 renal): > 100 µM | TGI (A549 NSCLC): > 100 µM | TGI (ACHN renal): > 100 µM | TGI (CAKI-1 renal): > 100 µM | TGI (DU-145 prostate): > 100 µM | TGI (EKVX NSCLC): > 100 µM | TGI (HCC-2998 colon): > 100 µM | TGI (HCT-116 colon): > 100 µM | TGI (HCT-15 colon): > 100 µM | TGI (HOP-62 NSCLC): > 100 µM | TGI (HS 578T breast): > 100 µM | TGI (HT29 colon): > 100 µM | TGI (IGROV1 ovarian): > 100 µM | TGI (K-562 leukemia): > 100 µM | TGI (KM12 colon): > 100 µM | TGI (LOX IMVI melanoma): > 100 µM | TGI (M14 melanoma): > 100 µM | TGI (MALME-3M melanoma): > 100 µM | TGI (MCF7 breast): > 100 µM | TGI (MDA-MB-231 breast): > 100 µM | TGI (MDA-MB-435): > 100 µM | TGI (MDA-N): > 100 µM | TGI (MOLT-4 leukemia): > 100 µM | TGI (NCI-H226 lung): > 100 µM | TGI (NCI-H23 lung): > 100 µM | TGI (NCI/ADR-RES ovarian): > 100 µM | TGI (OVCAR-3 ovarian): > 100 µM | TGI (OVCAR-4 ovarian): > 100 µM | TGI (OVCAR-5 ovarian): > 100 µM | TGI (OVCAR-8 ovarian): > 100 µM | TGI (PC-3 prostate): > 100 µM | TGI (RPMI-8226 leukemia): > 100 µM | TGI (SF-268 CNS): > 100 µM | TGI (SF-295 CNS): > 100 µM | TGI (SF-539 CNS): > 100 µM | TGI (SK-MEL-2 melanoma): > 100 µM | TGI (SK-MEL-28 melanoma): > 100 µM | TGI (SK-MEL-5 melanoma): > 100 µM | TGI (SK-OV-3 ovarian): > 100 µM | TGI (SN12C renal): > 100 µM | TGI (SNB-19 CNS): > 100 µM | TGI (SNB-75 CNS): > 100 µM | TGI (SR leukemia): > 100 µM | TGI (SW-620 colon): > 100 µM | TGI (T-47D breast): > 100 µM | TGI (TK-10 renal): > 100 µM | TGI (U251 CNS): > 100 µM | TGI (UACC-257 melanoma): > 100 µM | TGI (UACC-62 melanoma): > 100 µM | TGI (UO-31 renal): > 100 µM
